Measured values taken from ChEMBL document CHEMBL1201862, “PubChem BioAssay data set” (2004).
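Values below derive from 48-hour exposures of cells grown in 96-well plates, with endpoints linearly interpolated between the two concentrations bracketing the appropriate inhibition level. GI50: concentration for 50% inhibition of growth.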 The source made the active and inactive calls. Rule as the data show it: active = GI50 up to about 1.1 µM and inactive = higher.

Key:
Assay in all cases: NCI anticancer screen, dose series, 48 h
786-0 = system: 786-0
A549 = system: A549
CAKI-1 = system: CAKI-1
COLO 205 = system: COLO 205
DLD-1 = system: DLD-1
DMS-273 = system: DMS-273
EKVX = system: EKVX
HCC 2998 = system: HCC 2998
HCT-15 = system: HCT-15
HL-60 = system: HL-60
HOP-18 = system: HOP-18
IGROV-1 = system: IGROV-1
K562 = system: K562
KM12 = system: KM12
MOLT-4 = system: MOLT-4
NCI-H226 = system: NCI-H226
OVCAR-3 = system: OVCAR-3
OVCAR-8 = system: OVCAR-8
SK-MEL-2 = system: SK-MEL-2
SK-MEL-5 = system: SK-MEL-5
SN12C = system: SN12C
SR = system: SR
SW-620 = system: SW-620
TK-10 = system: TK-10
XF498 = system: XF498
A498 = system: A498
ACHN = system: ACHN
CCRF-CEM = system: CCRF-CEM
DMS-114 = system: DMS-114
HCT-116 = system: HCT-116
HOP-62 = system: HOP-62
HOP-92 = system: HOP-92
HT-29 = system: HT-29
KM-20L2 = system: KM-20L2
LOX IMVI = system: LOX IMVI
LXFL 529 = system: LXFL 529
M14 = system: M14
M19-MEL = system: M19-MEL
Malme-3M = system: Malme-3M
NCI-H23 = system: NCI-H23
NCI-H460 = system: NCI-H460
NCI-H522 = system: NCI-H522
OVCAR-4 = system: OVCAR-4
OVCAR-5 = system: OVCAR-5
RPMI-8226 = system: RPMI-8226
RXF 393 = system: RXF 393
SF-268 = system: SF-268
SF-295 = system: SF-295
SF-539 = system: SF-539
SK-MEL-28 = system: SK-MEL-28
SK-OV-3 = system: SK-OV-3
SNB-75 = system: SNB-75
SNB-78 = system: SNB-78
U-251 = system: U-251
UACC-257 = system: UACC-257
UACC-62 = system: UACC-62
UO-31 = system: UO-31

## CSc1nc(-c2ccc(Cl)cc2)c(C#N)c(=O)n1C1OC(COC(C)=O)C(OC(C)=O)C(OC(C)=O)C1OC(C)=O (centres undefined)
786-0
  GI50: > 100 µM (inactive)
A549
  GI50: > 100 µM (inactive)
CAKI-1
  GI50: > 100 µM (inactive)
COLO 205
  GI50: > 100 µM (inactive)
DLD-1
  GI50: > 100 µM (inactive)
DMS-273
  GI50: > 100 µM (inactive)
EKVX
  GI50: > 100 µM (inactive)
HCC 2998
  GI50: > 100 µM (inactive)
HCT-15
  GI50: > 100 µM
HL-60
  GI50: > 100 µM (inactive)
HOP-18
  GI50: 29.9 µM (inactive)
IGROV-1
  GI50: 57.1 µM (inactive)
K562
  GI50: > 100 µM (inactive)
KM12
  GI50: > 100 µM (inactive)
MOLT-4
  GI50: > 75 µM (inactive)
NCI-H226
  GI50: 33 µM (inactive)
OVCAR-3
  GI50: 12.6 µM (inactive)
OVCAR-8
  GI50: > 100 µM (inactive)
SK-MEL-2
  GI50: 53.8 µM (inactive)
SK-MEL-5
  GI50: > 100 µM (inactive)
SN12C
  GI50: > 100 µM (inactive)
SR
  GI50: > 100 µM (inactive)
SW-620
  GI50: > 100 µM (inactive)
TK-10
  GI50: > 100 µM (inactive)
XF498
  GI50: > 100 µM (inactive)

## COc1ccc(/C=N/NC(=O)NCCNCCO)cc1
786-0
  GI50: > 100 µM (inactive)
A498
  GI50: > 100 µM (inactive)
A549
  GI50: > 100 µM (inactive)
ACHN
  GI50: > 100 µM (inactive)
CAKI-1
  GI50: > 100 µM (inactive)
CCRF-CEM
  GI50: > 100 µM (inactive)
COLO 205
  GI50: > 100 µM (inactive)
DLD-1
  GI50: > 100 µM (inactive)
DMS-114
  GI50: > 100 µM (inactive)
DMS-273
  GI50: > 100 µM (inactive)
HCT-116
  GI50: > 100 µM (inactive)
HCT-15
  GI50: > 100 µM
HL-60
  GI50: > 100 µM (inactive)
HOP-18
  GI50: > 100 µM (inactive)
HOP-62
  GI50: > 100 µM (inactive)
HOP-92
  GI50: > 100 µM (inactive)
HT-29
  GI50: > 100 µM (inactive)
IGROV-1
  GI50: > 100 µM (inactive)
K562
  GI50: > 100 µM (inactive)
KM-20L2
  GI50: > 100 µM (inactive)
KM12
  GI50: > 100 µM (inactive)
LOX IMVI
  GI50: > 100 µM (inactive)
LXFL 529
  GI50: > 100 µM (inactive)
M14
  GI50: > 100 µM (inactive)
M19-MEL
  GI50: > 100 µM (inactive)
MOLT-4
  GI50: > 100 µM (inactive)
Malme-3M
  GI50: > 100 µM (inactive)
NCI-H226
  GI50: > 100 µM (inactive)
NCI-H23
  GI50: > 100 µM (inactive)
NCI-H460
  GI50: > 100 µM (inactive)
NCI-H522
  GI50: > 100 µM (inactive)
OVCAR-3
  GI50: > 100 µM (inactive)
OVCAR-4
  GI50: > 100 µM (inactive)
OVCAR-5
  GI50: > 100 µM (inactive)
OVCAR-8
  GI50: > 100 µM (inactive)
RPMI-8226
  GI50: > 100 µM (inactive)
RXF 393
  GI50: > 100 µM (inactive)
SF-268
  GI50: > 100 µM (inactive)
SF-295
  GI50: > 100 µM (inactive)
SF-539
  GI50: > 100 µM (inactive)
SK-MEL-28
  GI50: > 100 µM (inactive)
SK-MEL-2
  GI50: > 100 µM (inactive)
SK-MEL-5
  GI50: > 100 µM (inactive)
SK-OV-3
  GI50: > 100 µM (inactive)
SN12C
  GI50: > 100 µM (inactive)
SNB-75
  GI50: > 100 µM (inactive)
SNB-78
  GI50: > 100 µM (inactive)
SR
  GI50: > 100 µM (inactive)
SW-620
  GI50: > 100 µM (inactive)
TK-10
  GI50: > 100 µM (inactive)
U-251
  GI50: > 100 µM (inactive)
UACC-257
  GI50: > 100 µM (inactive)
UACC-62
  GI50: > 100 µM (inactive)
UO-31
  GI50: > 100 µM (inactive)
